Measured values reported in publication PMC2576176, “Direct activation of Transient Receptor Potential Vanilloid 1(TRPV1) by Diacylglycerol (DAG)” (Molecular Pain, 2008).

Molecular target: T1, TRPV1 (transient receptor potential vanilloid 1, capsaicin receptor) (Rattus norvegicus, UniProt O35433)
T1 construct: full-length wild-type rat TRPV1 in pcDNA3.1(+), transient transfection in HEK 293 cells; fura-2 Ca2+ imaging
Assay: fura-2 Ca2+ imaging concentration-response in TRPV1-expressing HEK […] cells; whole-cell patch clamp, cobalt uptake, Y511A mutant and competition with capsaicin
Type: cell-based

T1 sequence (O35433 whole entry): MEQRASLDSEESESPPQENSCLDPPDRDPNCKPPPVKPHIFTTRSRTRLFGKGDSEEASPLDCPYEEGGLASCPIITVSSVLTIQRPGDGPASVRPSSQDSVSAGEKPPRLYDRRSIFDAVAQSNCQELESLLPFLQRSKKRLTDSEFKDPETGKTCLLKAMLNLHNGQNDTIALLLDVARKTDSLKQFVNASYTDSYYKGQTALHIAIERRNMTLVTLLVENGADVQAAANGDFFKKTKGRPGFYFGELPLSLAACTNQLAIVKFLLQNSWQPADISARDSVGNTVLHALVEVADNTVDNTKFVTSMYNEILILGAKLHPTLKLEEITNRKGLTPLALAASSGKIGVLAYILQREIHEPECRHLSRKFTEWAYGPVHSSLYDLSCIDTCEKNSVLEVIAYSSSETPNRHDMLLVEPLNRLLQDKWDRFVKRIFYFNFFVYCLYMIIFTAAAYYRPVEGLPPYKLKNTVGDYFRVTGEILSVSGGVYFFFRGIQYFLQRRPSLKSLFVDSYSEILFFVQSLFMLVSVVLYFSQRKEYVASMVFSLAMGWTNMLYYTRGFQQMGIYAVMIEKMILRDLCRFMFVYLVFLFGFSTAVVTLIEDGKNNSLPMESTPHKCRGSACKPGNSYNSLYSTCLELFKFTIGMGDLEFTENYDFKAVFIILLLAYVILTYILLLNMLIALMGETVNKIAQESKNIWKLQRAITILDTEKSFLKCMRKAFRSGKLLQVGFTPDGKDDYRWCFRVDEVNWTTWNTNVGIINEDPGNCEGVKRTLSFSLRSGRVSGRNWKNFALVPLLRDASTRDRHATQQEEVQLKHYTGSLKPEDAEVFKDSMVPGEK

EC50: 13 µM
SMILES: CCCCCCCC/C=C\CCCCCCCC(=O)OC[C@H](CO)OC(C)=O [OAG, 1-oleoyl-2-acetyl-sn-glycerol]
